# Values of other authors in patent US10188628B1, “Release composition for derivatives of Cannabaceae” (priority 2016, dated 2019).
# Legend:
# [1] = not given; remark: listed apart in the source
# [2] = after oral administration
smiles,measurement,setting,value
"CCCCCc1cc(O)c2c(c1)OC(C)(C)[C@@H]1CCC(C)=C[C@@H]21 [Dronabinol, Δ^9-tetrahydrocannabinol]",stability to storage and stress conditions,"heat, light",thermolabile and photolabile
same,biopharmaceutical classification system (BCS) class,low aqueous solubility and high permeability,Class II
same,absorbed,[1]; after a single oral dose,90-95%
same,maximal plasma levels,[1]; oral dosing of 20 mg in a sesame oil formulation,around 10 ng/ml
same,administered dose reaching systemic circulation,"[1]; oral, first pass hepatic metabolism and high lipid solubility",10-20%
same,appetite stimulant effect may continue,[2],≥ 24 h
same,duration of action for psychoactive effects,[2],4 to 6 h
same,onset of action,[2],0.5 to 1 h
same,peak effect,[2],2 to 4 h
